Experimental data from patent publication US10570117B2, “Phenylimidazole compound” (Otsuka Pharmaceutical Factory, Inc., priority 2015, dated 2020).
Converted amounts (≈) assume the structure as drawn. Where two headings read alike, the source gives them in different places.

What was measured:
[1] = Solubility in gastric juice or intestinal juice model fluid (precipitation method using DMSO); assay type: physicochemical; conditions: room temperature
Procedure, shortened: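 Dissolved amount (μg/mL) quantified by UV of filtrate versus pre-made calibration curves. Precipitation approach: DMSO solutions spiked into pH 1.2 (JP 1st fluid) or pH 6.8 (JP 2nd fluid) medium, shaken at room temperature for 24 h before insolubles were filtered off.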

[2] = tested on: lipoprotein lipase (LPL) gene; assay: LPL mRNA elevating action (RT-PCR quantification of LPL mRNA in C2Cl2 cells); assay type: cell-based, mouse; conditions: Mus musculus, 24 h, compound 10 μM, ratio relative to the amount of LPL mRNA in cells with DMSO only, read-out: Rate of increase in LPL mRNA
Procedure, shortened: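 Read-out is LPL mRNA relative to vehicle (DMSO = 1), measured by reverse transcription and 20-cycle real-time PCR. Cells were the mouse striated-muscle line C2Cl2, treated 24 h with 10 μM compound in DMEM containing 10% FBS.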

[3] = pH 1.2, simulated gastric fluid, kinetic from dmso stock, 1st fluid for Disintegration Test of Japanese Pharmacopoeia (pH: 1.2), read-out: Solubility (μg/mL) 1st fluid
[4] = pH 6.8, kinetic from dmso stock, 2nd fluid for Disintegration Test of Japanese Pharmacopoeia (pH: 6.8), read-out: Solubility (μg/mL) 2nd fluid

| SMILES | solubility at 24 h [1, 3] [µg/mL] | solubility at 24 h [1, 4] [µg/mL] | fold induction at 10 µM [2] | melting point |
| --- | --- | --- | --- | --- |
| COc1cc(OCc2ncc(C(F)(F)F)cc2Br)ccc1-c1cnc(-c2ccc(F)nc2)[nH]1 [Example 133] | 29.3 (≈ 56 µM) | 2 (≈ 3.82 µM) | 2.43 | 153 to 170 °C |
| COc1cc(OCc2ccnc(C(F)(F)F)c2)ccc1-c1cnc(-c2ccc(F)nc2)[nH]1 [Example 135] | 6.8 (≈ 15.3 µM) | 2.2 (≈ 4.95 µM) | 3.14 | 212 to 244 °C |
| COc1cc(OCc2ccncc2C(F)(F)F)ccc1-c1cnc(-c2ccc(F)nc2)[nH]1 [Example 136] | > 89 | 2.2 (≈ 4.95 µM) | 2.71 | 181 to 192 °C |
| COc1cc(OCc2ncc(Cl)cc2F)ccc1-c1cnc(-c2ccc(F)nc2)[nH]1 [Example 141] | 10.1 (≈ 23.6 µM) | < 0.3 | 2.33 | 174 to 176 °C |
| COc1cc(OCc2ccc(C(F)(F)F)nc2)ccc1-c1nc(-c2ccc(Cl)nc2)n(C)c1C [Example 152, 2-chloro-5-[4-[2-methoxy-4-((6-(trifluoromethyl)pyridin-3-yl)methoxy)phenyl]-1,5-dimethyl-1H-imidazol-2-yl]pyridine] | > 98 | < 0.3 | 3.3 | 185 to 188 °C |
| COc1cc(OCc2ccc(C(F)(F)F)nc2)ccc1-c1c(C)nc(-c2ccc(Cl)nc2)n1C [Example 153, 2-chloro-5-[5-[2-methoxy-4-((6-(trifluoromethyl)pyridin-3-yl)methoxy)phenyl]-1,4-dimethyl-1H-imidazol-2-yl]pyridine] | > 98 | 1.7 (≈ 3.48 µM) | 4.61 | 148 to 150 °C |
| COc1cc(OCc2ccc(C(F)(F)F)nc2)ccc1-c1nc(-c2ccc(Cl)nc2)n(CC2CC2)c1C [Example 154] | 104 (≈ 196 µM) | 2 (≈ 3.78 µM) | 5.78 | 110 to 112 °C |
| COc1cc(OCc2ccc(C(F)(F)F)nc2)ccc1-c1c(C)nc(-c2ccc(Cl)nc2)n1CC1CC1 [Example 155] | > 106 | 3 (≈ 5.67 µM) | 3.06 | 164 to 166 °C |
| COc1cc(OCc2ccc(C(F)(F)F)cn2)ccc1-c1c(C)nc(-c2ccc(Cl)nc2)n1CC1CC1 [Example 157] | 106 (≈ 199 µM) | 1.9 (≈ 3.59 µM) | 4.05 | 145 to 148 °C |
| COc1cc(OCc2ccc(C(F)(F)F)nc2)ccc1-c1c(C)nc(-c2ccc(F)nc2)n1C [Example 161] | > 94 | 3.9 (≈ 8.25 µM) | 3.06 | 123 to 126 °C |
| COc1cc(OCc2ccc(C(F)(F)F)cn2)ccc1-c1c(C)nc(-c2ccc(Cl)nc2)n1C [Example 165] | 96 (≈ 196 µM) | 2.1 (≈ 4.3 µM) | 3.34 | 152 to 154 °C |
| COCn1cc(-c2ccc(OCc3ccc(C(F)(F)F)cn3)cc2OC)nc1-c1ccc(Cl)nc1 [Example 167] | 100 (≈ 199 µM) | 0.4 (≈ 0.792 µM) | 2.23 | 138 to 140 °C |
| COc1cc(OCc2ccc(C(F)(F)F)cn2)ccc1-c1nc(-c2ccc(F)nc2)n(C)c1Cl [Example 169, 2-[[4-(5-chloro-2-(6-fluoropyridin-3-yl)-1-methyl-1H-imidazol-4-yl)-3-methoxyphenoxy]methyl]-5-(trifluoromethyl)pyridine] | 96.3 (≈ 195 µM) | < 0.4 | 3.12 | 158 to 160 °C (dec.) |
| COc1cc(-c2[nH]c(C3CCCC(F)(F)C3)nc2Br)ccc1OCc1ccc(C(F)(F)F)cn1 (stereo not shown) [Example 170] | 105 (≈ 191 µM) | 1.3 (≈ 2.38 µM) | 3.36 | 158 to 160 °C |
| COc1cc(OCc2ncc(Br)cc2F)ccc1-c1[nH]c(-c2ccc(F)nc2)nc1Cl [Example 175] | 10 (≈ 19.7 µM) | 2.5 (≈ 4.92 µM) | 3.94 | 122 to 124 °C |
| COc1cc(-c2[nH]c(C3CC(F)(F)C3)nc2Br)ccc1OCc1ccc(C(F)(F)F)nc1 [Example 178] | 98.5 (≈ 190 µM) | 1.7 (≈ 3.28 µM) | 3.58 | 168 to 170 °C |
| COc1cc(-c2[nH]c(C3CC(F)(F)C3)nc2Cl)ccc1OCc1ccc(C(F)(F)F)nc1 [Example 179] | 25.8 (≈ 54.5 µM) | 2.3 (≈ 4.85 µM) | 2.66 | 170 to 174 °C |
| COc1cc(OCc2ccc(C(F)(F)F)nc2)ccc1-c1[nH]c(C2CC(F)(F)C2)nc1Cl [Example 181] | 93.4 (≈ 197 µM) | < 0.3 | 4.53 | 199 to 201 °C |
| COc1cc(OCc2ccc(C(F)(F)F)cn2)ccc1-c1[nH]c(C2CCCC(F)(F)C2)nc1Cl (stereo not shown) [Example 182] | 95.5 (≈ 190 µM) | 1.9 (≈ 3.79 µM) | 3.41 | 162 to 164 °C |
| COc1cc(OCc2ccc(C(F)(F)F)cn2)ccc1-c1[nH]c(C2CCCC(F)(F)C2)nc1Br (stereo not shown) [Example 183] | 99 (≈ 181 µM) | 1.1 (≈ 2.01 µM) | 4.26 | 170 to 171 °C |
| COc1cc(OCc2ncccc2C#N)ccc1-c1[nH]c(C2CCC(F)(F)CC2)nc1Cl [Example 185] | 87.4 (≈ 190 µM) | 23.1 (≈ 50.3 µM) | 2.41 | 161 to 162 °C |
| COc1cc(OCc2ccc(C(F)(F)F)cn2)ccc1-c1[nH]c(C2CC(F)(F)C2)nc1Cl [Example 188] | 86.4 (≈ 182 µM) | 1.9 (≈ 4.01 µM) | 2.95 | 191 to 193 °C |
| COc1cc(-c2[nH]c(C3CCC(F)(F)C3)nc2Cl)ccc1OCc1ccc(C(F)(F)F)cn1 (stereo not shown) [Example 189] | 89 (≈ 182 µM) | 11.6 (≈ 23.8 µM) | 3.51 | 159 to 161 °C |
| COc1cc(-c2[nH]c(C3CC(F)(F)C3)nc2Br)ccc1OCc1ccc(C(F)(F)F)cn1 [Example 190] | 92.5 (≈ 178 µM) | 2 (≈ 3.86 µM) | 3.58 | 151 to 157 °C |
| COc1cc(-c2[nH]c(C3CC(F)(F)C3)nc2Cl)ccc1OCc1ccc(C(F)(F)F)cn1 [Example 191] | 25.9 (≈ 54.7 µM) | 1.7 (≈ 3.59 µM) | 4.06 | 201 to 203 °C (dec.) |
| COc1cc(-c2[nH]c(C3CCC3)nc2Cl)ccc1OCc1ccc(C(F)(F)F)cn1 [Example 193] | 86.4 (≈ 197 µM) | 0.8 (≈ 1.83 µM) | 4.32 | 158 to 170 °C |
| COc1cc(-c2[nH]c(C3CCCC3)nc2Cl)ccc1OCc1ccc(C(F)(F)F)cn1 [Example 194] | > 90 | 0.5 (≈ 1.11 µM) | 3.92 | 182 to 184 °C (dec.) |
| COc1cc(OCc2ncccc2C(F)(F)F)ccc1-c1[nH]c(C2CCC(F)(F)CC2)nc1Cl [Example 195] | > 100 | 0.6 (≈ 1.2 µM) | 3.34 | 162 to 164 °C |
